We go through nine molecules from patent US20250197372A1 (priority 2020, published 2025).

Holding throughout (type): biochemical
Test [1] deals with rat sucrase (partially purified alpha-glucosidase from intestinal rat powder) (Rattus norvegicus, UniProt P23739). The test is described as follows: Intestinal alpha-glucosidase assay, sucrose substrate (Glucose GO Kit). In short, it runs like this:
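First step: 60 min, 37 °C, compound with partially purified rat intestinal alpha-glucosidase. Next, maltose or sucrose for 30 min at 37 °C, ended at 90 °C for 5 min. Glucose quantified enzymatically; concentration–inhibition data fitted 4-PL for IC50.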

The target in test [2] is T1, recombinant human GBA (beta-glucocerebrosidase) (Homo sapiens, UniProt P04062).
T1 sequence (P04062 40-536): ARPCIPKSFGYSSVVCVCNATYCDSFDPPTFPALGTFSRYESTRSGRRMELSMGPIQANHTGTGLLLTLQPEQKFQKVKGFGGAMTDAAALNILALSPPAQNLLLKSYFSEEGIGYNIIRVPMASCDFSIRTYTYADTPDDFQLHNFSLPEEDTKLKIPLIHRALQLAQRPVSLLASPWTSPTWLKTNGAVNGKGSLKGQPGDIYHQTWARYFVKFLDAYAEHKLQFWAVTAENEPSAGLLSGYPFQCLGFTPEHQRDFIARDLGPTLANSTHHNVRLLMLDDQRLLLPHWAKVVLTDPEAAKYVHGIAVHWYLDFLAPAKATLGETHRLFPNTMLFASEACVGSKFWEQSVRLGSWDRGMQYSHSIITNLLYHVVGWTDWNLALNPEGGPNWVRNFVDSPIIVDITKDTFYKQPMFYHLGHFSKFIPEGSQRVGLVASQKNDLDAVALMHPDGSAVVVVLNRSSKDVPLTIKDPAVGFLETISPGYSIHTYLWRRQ
The test is described as follows: Beta-glucocerebrosidase (GBA, glucosylceramidase) assay (4-methylumbelliferyl-beta-D-pyranoside substrate, fluorescence). In outline:
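IC50 by four-parameter fit of percent inhibition, with product fluorescence (365/440 nm) read after a glycine/NaOH pH 10 stop. Compound and commercial recombinant human enzyme were incubated 60 min at 37 °C before a further 60 min at 37 °C with 4-methylumbelliferyl-beta-D-pyranoside substrate.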

In test [3] the target is T2, recombinant alpha-glucosidase II (murine full-length glucosidase II, alpha and beta subunits, Glu 2) (Mus musculus, UniProt Q8BHN3).
T2 construct: made in house; host or cells: HEK-293T cells transduced with BacMam viruses (75% alpha, 25% beta); protein harvested from culture supernatant
The experiment in a line: Alpha-glucosidase II assay (4-methylumbelliferyl-alpha-D-pyranoside substrate, fluorescence). To be noted: Glucosidase 2; read-out: Glu2 IC50.

As a reminder, the IC50 is the point on the concentration scale where inhibition reaches its midpoint.

Chain of rat sucrase (partially purified alpha-glucosidase from intestinal rat powder) (P23739 whole entry): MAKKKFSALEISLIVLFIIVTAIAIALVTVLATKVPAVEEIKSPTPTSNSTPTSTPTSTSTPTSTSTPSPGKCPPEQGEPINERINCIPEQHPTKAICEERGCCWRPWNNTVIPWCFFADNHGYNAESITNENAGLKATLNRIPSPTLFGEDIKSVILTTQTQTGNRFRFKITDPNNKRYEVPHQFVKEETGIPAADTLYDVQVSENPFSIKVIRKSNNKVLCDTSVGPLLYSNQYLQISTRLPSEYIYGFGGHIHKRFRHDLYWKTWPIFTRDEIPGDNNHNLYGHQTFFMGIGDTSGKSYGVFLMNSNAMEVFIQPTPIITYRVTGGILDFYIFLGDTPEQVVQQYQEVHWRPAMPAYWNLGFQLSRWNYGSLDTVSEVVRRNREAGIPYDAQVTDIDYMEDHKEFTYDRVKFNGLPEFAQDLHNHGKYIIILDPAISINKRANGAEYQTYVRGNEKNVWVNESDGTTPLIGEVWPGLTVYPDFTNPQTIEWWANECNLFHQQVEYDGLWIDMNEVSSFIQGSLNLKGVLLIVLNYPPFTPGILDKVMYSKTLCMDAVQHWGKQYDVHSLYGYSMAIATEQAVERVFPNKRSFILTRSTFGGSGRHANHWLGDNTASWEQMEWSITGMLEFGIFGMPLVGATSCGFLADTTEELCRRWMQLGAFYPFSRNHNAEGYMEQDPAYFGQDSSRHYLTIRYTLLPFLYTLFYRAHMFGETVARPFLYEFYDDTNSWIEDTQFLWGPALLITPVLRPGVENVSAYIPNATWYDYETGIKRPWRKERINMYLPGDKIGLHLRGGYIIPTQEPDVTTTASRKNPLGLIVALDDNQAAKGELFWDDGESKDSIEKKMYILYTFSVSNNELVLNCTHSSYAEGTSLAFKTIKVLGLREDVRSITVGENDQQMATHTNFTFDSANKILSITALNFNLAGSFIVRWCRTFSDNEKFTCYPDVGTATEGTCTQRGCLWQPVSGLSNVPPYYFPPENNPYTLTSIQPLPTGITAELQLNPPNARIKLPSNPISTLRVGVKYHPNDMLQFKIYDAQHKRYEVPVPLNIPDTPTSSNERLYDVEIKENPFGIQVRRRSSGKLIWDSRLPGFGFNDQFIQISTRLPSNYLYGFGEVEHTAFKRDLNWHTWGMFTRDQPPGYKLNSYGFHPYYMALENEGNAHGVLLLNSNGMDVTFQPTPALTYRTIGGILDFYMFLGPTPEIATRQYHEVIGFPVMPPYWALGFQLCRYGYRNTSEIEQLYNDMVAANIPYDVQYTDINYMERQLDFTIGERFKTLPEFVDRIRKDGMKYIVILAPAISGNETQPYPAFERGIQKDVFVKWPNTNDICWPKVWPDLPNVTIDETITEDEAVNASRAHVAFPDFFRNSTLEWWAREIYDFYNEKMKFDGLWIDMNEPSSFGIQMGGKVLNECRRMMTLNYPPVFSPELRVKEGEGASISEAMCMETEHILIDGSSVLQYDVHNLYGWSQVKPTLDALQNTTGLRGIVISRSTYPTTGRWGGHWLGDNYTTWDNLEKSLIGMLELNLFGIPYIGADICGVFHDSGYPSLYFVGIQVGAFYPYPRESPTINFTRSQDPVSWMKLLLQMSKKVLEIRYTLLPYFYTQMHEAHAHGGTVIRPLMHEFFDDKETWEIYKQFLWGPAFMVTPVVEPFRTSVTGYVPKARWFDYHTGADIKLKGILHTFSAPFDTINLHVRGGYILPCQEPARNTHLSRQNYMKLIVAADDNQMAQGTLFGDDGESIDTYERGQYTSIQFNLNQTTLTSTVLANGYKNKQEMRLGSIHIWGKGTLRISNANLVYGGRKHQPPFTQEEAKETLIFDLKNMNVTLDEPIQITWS
T2 sequence (O08795 15-521): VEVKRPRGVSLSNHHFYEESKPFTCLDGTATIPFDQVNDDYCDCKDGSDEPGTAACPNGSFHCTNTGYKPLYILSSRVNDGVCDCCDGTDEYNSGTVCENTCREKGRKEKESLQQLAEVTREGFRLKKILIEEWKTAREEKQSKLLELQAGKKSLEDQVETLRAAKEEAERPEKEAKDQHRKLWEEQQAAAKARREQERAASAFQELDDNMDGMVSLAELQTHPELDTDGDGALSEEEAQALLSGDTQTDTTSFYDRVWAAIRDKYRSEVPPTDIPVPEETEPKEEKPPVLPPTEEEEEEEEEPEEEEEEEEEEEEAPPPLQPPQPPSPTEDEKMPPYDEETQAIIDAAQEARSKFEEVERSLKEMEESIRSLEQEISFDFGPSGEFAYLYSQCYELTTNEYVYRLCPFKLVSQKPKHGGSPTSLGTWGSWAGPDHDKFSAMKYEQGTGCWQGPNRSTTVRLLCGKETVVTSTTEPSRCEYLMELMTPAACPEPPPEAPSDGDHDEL
T2 sequence (Q8BHN3 33-944): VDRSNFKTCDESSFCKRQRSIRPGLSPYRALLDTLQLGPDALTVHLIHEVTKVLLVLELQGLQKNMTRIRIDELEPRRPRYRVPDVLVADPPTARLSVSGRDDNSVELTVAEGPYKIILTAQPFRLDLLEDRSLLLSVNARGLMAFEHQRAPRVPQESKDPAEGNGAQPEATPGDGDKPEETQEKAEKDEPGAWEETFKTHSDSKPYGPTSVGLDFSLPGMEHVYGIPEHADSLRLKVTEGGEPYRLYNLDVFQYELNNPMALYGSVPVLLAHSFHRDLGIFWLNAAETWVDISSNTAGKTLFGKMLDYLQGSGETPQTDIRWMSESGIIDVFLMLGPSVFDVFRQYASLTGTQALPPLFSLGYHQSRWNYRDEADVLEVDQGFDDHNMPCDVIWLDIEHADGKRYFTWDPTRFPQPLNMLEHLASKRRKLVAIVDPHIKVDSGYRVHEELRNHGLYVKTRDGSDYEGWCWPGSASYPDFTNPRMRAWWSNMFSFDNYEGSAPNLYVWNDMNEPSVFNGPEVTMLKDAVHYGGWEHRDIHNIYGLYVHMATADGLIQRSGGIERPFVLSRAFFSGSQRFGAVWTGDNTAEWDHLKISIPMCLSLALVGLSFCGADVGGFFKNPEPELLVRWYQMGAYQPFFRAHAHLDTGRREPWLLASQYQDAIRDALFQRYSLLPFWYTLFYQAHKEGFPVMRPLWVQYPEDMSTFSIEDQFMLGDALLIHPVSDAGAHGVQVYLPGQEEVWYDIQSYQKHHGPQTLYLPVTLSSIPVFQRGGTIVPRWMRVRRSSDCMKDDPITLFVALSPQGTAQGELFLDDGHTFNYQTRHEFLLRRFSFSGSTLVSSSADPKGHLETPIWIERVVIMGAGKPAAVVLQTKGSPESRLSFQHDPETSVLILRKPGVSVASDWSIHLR

As to `Cc1cc(NCc2cccc(CN3C[C@H](O)[C@@H](O)[C@H](O)[C@H]3CO)n2)cc(-c2ncccn2)c1` [Compound 1322, (2R,3R,4R,5S)-2-(hydroxymethyl)-1-{[6-({[3-methyl-5-(pyrimidin-2-yl)phenyl]amino}methyl)pyridin-2-yl]methyl}piperidine-3,4,5-triol], the values for the IC50 in test [1], in test [2] and in test [3] were 0.481 µM, 99 µM and 32.4 µM, respectively.
On the same counts, the results for `Cc1cc(NCc2ccc(CN3C[C@H](O)[C@@H](O)[C@H](O)[C@H]3CO)cc2)cc(-n2ccnn2)c1` [Compound 1323, (2R,3R,4R,5S)-2-(hydroxymethyl)-1-{[4-({[3-methyl-5-(1H-1,2,3-triazol-1-yl)phenyl]amino}methyl)phenyl]methyl}piperidine-3,4,5-triol] are 0.037 µM, over 100 µM and 0.382 µM.
Take `OC[C@@H]1[C@@H](O)[C@H](O)[C@@H](O)CN1Cc1cnc(CNc2cc(-c3ncccn3)cc(C3CC3)c2)cn1` [Compound 1329, (2R,3R,4R,5S)-1-{[5-({[3-cyclopropyl-5-(pyrimidin-2-yl)phenyl]amino}methyl)pyrazin-2-yl]methyl}-2-(hydroxymethyl)piperidine-3,4,5-triol]: the IC50 amounted to 0.675 µM in test [1], 82.9 µM in test [2] and 2.55 µM in test [3].
On the same counts, the results for `Cc1cc(NCc2cnc(CN3C[C@H](O)[C@@H](O)[C@H](O)[C@H]3CO)cn2)cc(-c2ccc[nH]2)c1` [Compound 1330, (2R,3R,4R,5S)-2-(hydroxymethyl)-1-{[5-({[3-methyl-5-(1H-pyrrol-2-yl)phenyl]amino}methyl)pyrazin-2-yl]methyl}piperidine-3,4,5-triol] are 0.595 µM, 13.2 µM and 14.4 µM.
The like results for `Cc1cc(NCc2cnc(CN3C[C@H](O)[C@@H](O)[C@H](O)[C@H]3CO)cn2)cc(N2CCOCC2)c1` [Compound 1332, (2R,3R,4R,5S)-2-(hydroxymethyl)-1-{[5-({[3-methyl-5-(morpholin-4-yl)phenyl]amino}methyl)pyrazin-2-yl]methyl}piperidine-3,4,5-triol] were, in that order, 3.5 µM, over 100 µM and over 100 µM.
Turning to `OC[C@@H]1[C@@H](O)[C@H](O)[C@@H](O)CN1Cc1cccc(CNc2cc(-c3ncccn3)cc(C3CC3)c2)n1` [Compound 1333, (2R,3R,4R,5S)-1-{[6-({[3-cyclopropyl-5-(pyrimidin-2-yl)phenyl]amino}methyl)pyridin-2-yl]methyl}-2-(hydroxymethyl)piperidine-3,4,5-triol], the 50% inhibitory concentration (IC50) in test [1] is 1.59 µM; in test [2], over 100 µM; in test [3] it was over 100 µM.
On to `Cc1cc(NCc2cccc(CN3C[C@H](O)[C@@H](O)[C@H](O)[C@H]3CO)n2)cc(-c2ccco2)c1` [Compound 1334, (2R,3R,4R,5S)-1-{[6-({[3-(furan-2-yl)-5-methylphenyl]amino}methyl)pyridin-2-yl]methyl}-2-(hydroxymethyl)piperidine-3,4,5-triol], for which the values for the IC50 in test [1], in test [2] and in test [3] were 0.336 µM, over 100 µM and over 100 µM, respectively.
Regarding `Cc1cc(NCc2cccc(CN3C[C@H](O)[C@@H](O)[C@H](O)[C@H]3CO)n2)cc(N2CCOCC2)c1` [Compound 1336, (2R,3R,4R,5S)-2-(hydroxymethyl)-1-{[6-({[3-methyl-5-(morpholin-4-yl)phenyl]amino}methyl)pyridin-2-yl]methyl}piperidine-3,4,5-triol], the IC50 was 21.3 µM in test [1], over 100 µM in test [2] and over 100 µM in test [3].
In the case of `COc1ccc(C#CCCCCCN2C[C@H](O)[C@@H](O)[C@H](O)[C@H]2CO)cc1` [Compound 1338, (2R,3R,4R,5S)-2-(hydroxymethyl)-1-[7-(4-methoxyphenyl)hept-6-yn-1-yl]piperidine-3,4,5-triol], the IC50 in test [1] amounted to 0.371 µM; in test [2], 9.44 µM; in test [3], 0.109 µM.
